{"source": "patent US20230372313A1", "about": "“METHODS FOR REDUCING GLYCOSPHINGOLIPID CONCENTRATION IN BRAIN TISSUE AND METHODS OF TREATMENT OF NEURODEGENERATIVE DISEASES INVOLVING THE SAME” (GENZYME CORPORATION, priority 2020, published 2023)", "key": {"glucosylceramide (GL-1)": {"system": "glucosylceramide (GL-1)", "assay": "CSF glucosylceramide (GL-1) levels, pharmacodynamics", "assay_type": "in vivo, human", "description": "Analyses were based on all available data from participants who enrolled in part 1 of the trial and were randomised to receive either Compound 2 or placebo for up to 52 weeks for Japanese participants and 36 weeks for the ROW population. As part 1 was an exploratory, dose-escalation study, the sample size was not based on a statistical power calculation. Participants included in the primary safety analyses were those who were randomized and received at least one dose of Compound 2 or placebo. A data monitoring committee was responsible for overseeing the safety of patients and the risk/benefit ratio throughout the study. Duration of exposure to Compound 2 was different among the doses, as per the sequential cohort design, with the low- and high-dose cohorts commencing the study first and last, respectively. For pharmacokinetics, plasma parameters were calculated using noncompartmental methods, from plasma Compound 2 concentrations obtained after single dose administration. AUC0-24 and AUC0-48 were calculated using the trapezoidal method over a predefined time period of 24 hours or 48 hours, respectively. CLss/F was calculated using the following equation: CLss/F=Dose/AUCτ, where τ is the dosing interval. For pharmacodynamics, percent reduction of plasma or CSF GL-1 from baseline was calculated as (value−baseline)/baseline×100. Formal statistical testing was not conducted on MDS-UPDRS scale assessments.\nIn exploratory analyses, Compound 2 pharmacodynamics in plasma and CSF were assessed by mean percent change in GL-1 levels from baseline through Week 4. GL-1 levels were assessed in plasma and CSF samples collected at the day of randomisation and Week 4, with plasma GL-1 levels also assessed at Week 2.\nConcentrations of GL-1 in plasma and CSF were determined using a liquid chromatography tandem mass spectrometry method. Secondary pharmacokinetic outcomes were evaluated over a 4-week period of once-daily Compound 2 dosing (Table 7)."}, "[1]": {"assay": "CSF concentration of Compound 2 in PD participants (LC-MS/MS)", "assay_type": "in vivo, human", "settings": "for CSF concentration, mean: week 4, 2-4 h postdose; for CSF concentration, Fold increase vs low dose: week 4", "description": "Participants were randomised to 3 doses of once-daily orally administered Compound 2 or placebo, in sequential cohort design, and were followed up to 36 weeks (52 weeks for Japanese participants). Participants in the low-dose group received 4 mg of Compound 2 as a once daily oral dose; participants in the mid-dose group received 8 mg of Compound 2 a once daily oral dose; and participants in the high-dose group received 15 mg of Compound 2 a once daily oral dose.\nThe secondary outcome was to evaluate the pharmacokinetic profile of Compound 2 in plasma and cerebrospinal fluid (CSF) over a 4-week period. Plasma pharmacokinetic parameters included maximum plasma concentration (Cmax), time to Cmax (tmax), and area under the plasma concentration versus time curve from 0 to 24 h (AUC0-24). All parameters were assessed at Week 0 and Week 4 after treatment. In addition, AUC0-48 was assessed at Week 0, trough plasma concentration observed just before treatment administration during repeated dosing (Ctrough) was assessed at Weeks 2, 4, and 8 (FIG. 3), and total systemic clearance from plasma at steady state (CLSS/F) was assessed at Week 4. Plasma samples were collected at 1 hour pre-dose and 1, 2, 4, 8, 24, and 48 hours postdose. Compound 2 concentration in plasma was determined using a liquid chromatography tandem mass spectrometry method with a lower limit of quantification of 0.500 ng/mL. CSF samples were collected by lumbar puncture during the screening period (within 14 days prior to randomisation) or on the day of randomisation, and at Week 4, within 2 to 4 hours postdose. Compound 2 concentration in CSF was determined using a liquid chromatography tandem mass spectrometry method with a lower limit of quantification of 0.100 ng/mL."}, "[2]": {"settings": "Japan, High 15 mg once daily oral, n = 3"}, "[3]": {"settings": "Japan, Low 4 mg once daily oral, n = 3"}, "[4]": {"settings": "Japan, Mid 8 mg once daily oral, n = 3"}, "[5]": {"settings": "ROW, High 15 mg once daily oral, n = 4, CSF sample not collected for 1 participant"}, "[6]": {"settings": "ROW, Low 4 mg once daily oral, n = 4"}, "[7]": {"settings": "ROW, Mid 8 mg once daily oral, n = 5"}}, "data": [{"smiles": "CC(C)(NC(=O)O[C@@H]1CN2CCC1CC2)c1csc(-c2ccc(F)cc2)n1", "note": "[Compound 2, (S)-quinuclidin-3-yl (2-(2-(4-fluorophenyl)thiazol-4-yl)propan-2-yl)carbamate]", "values": [{"measurement": "CSF GL-1, Week 4 (mean)", "setting": "glucosylceramide (GL-1); [2]", "value": 2.770, "unit": "ng/mL"}, {"measurement": "CSF GL-1, Week 4, Change from baseline (%) (mean)", "setting": "glucosylceramide (GL-1); [2]", "value": "−72.0", "unit": "%"}, {"measurement": "CSF GL-1, Week 4, Change from baseline (mean)", "setting": "glucosylceramide (GL-1); [2]", "value": -6.663, "unit": "ng/mL"}, {"measurement": "CSF GL-1, Week 4 (mean)", "setting": "glucosylceramide (GL-1); [3]", "value": 3.843, "unit": "ng/mL"}, {"measurement": "CSF GL-1, Week 4, Change from baseline (%) (mean)", "setting": "glucosylceramide (GL-1); [3]", "value": "−21.7", "unit": "%"}, {"measurement": "CSF GL-1, Week 4, Change from baseline (mean)", "setting": "glucosylceramide (GL-1); [3]", "value": -1.733, "unit": "ng/mL"}, {"measurement": "CSF GL-1, Week 4 (mean)", "setting": "glucosylceramide (GL-1); [4]", "value": 3.027, "unit": "ng/mL"}, {"measurement": "CSF GL-1, Week 4, Change from baseline (%) (mean)", "setting": "glucosylceramide (GL-1); [4]", "value": "−67.0", "unit": "%"}, {"measurement": "CSF GL-1, Week 4, Change from baseline (mean)", "setting": "glucosylceramide (GL-1); [4]", "value": -5.023, "unit": "ng/mL"}, {"measurement": "mean reduction in CSF GL-1 at Week 4", "setting": "glucosylceramide (GL-1); Japanese cohort, high-dose 15 mg", "value": 72.0, "unit": "%"}, {"measurement": "mean reduction in CSF GL-1 at Week 4", "setting": "glucosylceramide (GL-1); Japanese cohort, low-dose 4 mg", "value": 21.7, "unit": "%"}, {"measurement": "mean reduction in CSF GL-1 at Week 4", "setting": "glucosylceramide (GL-1); Japanese cohort, medium-dose 8 mg", "value": 67.0, "unit": "%"}, {"measurement": "mean reduction in CSF GL-1 at Week 4", "setting": "glucosylceramide (GL-1); ROW participants, high-dose 15 mg", "value": 74.3, "unit": "%"}, {"measurement": "mean reduction in CSF GL-1 at Week 4", "setting": "glucosylceramide (GL-1); ROW participants, low-dose 4 mg", "value": 41.0, "unit": "%"}, {"measurement": "mean reduction in CSF GL-1 at Week 4", "setting": "glucosylceramide (GL-1); ROW participants, medium-dose 8 mg", "value": 58.0, "unit": "%"}, {"measurement": "CSF GL-1, Week 4 (mean)", "setting": "glucosylceramide (GL-1); [5]", "value": 1.623, "unit": "ng/mL"}, {"measurement": "CSF GL-1, Week 4, Change from baseline (%) (mean)", "setting": "glucosylceramide (GL-1); [5]", "value": "−74.3", "unit": "%"}, {"measurement": "CSF GL-1, Week 4, Change from baseline (mean)", "setting": "glucosylceramide (GL-1); [5]", "value": -5.250, "unit": "ng/mL"}, {"measurement": "CSF GL-1, Week 4 (mean)", "setting": "glucosylceramide (GL-1); [6]", "value": 4.315, "unit": "ng/mL"}, {"measurement": "CSF GL-1, Week 4, Change from baseline (%) (mean)", "setting": "glucosylceramide (GL-1); [6]", "value": "−41.0", "unit": "%"}, {"measurement": "CSF GL-1, Week 4, Change from baseline (mean)", "setting": "glucosylceramide (GL-1); [6]", "value": -2.433, "unit": "ng/mL"}, {"measurement": "CSF GL-1, Week 4 (mean)", "setting": "glucosylceramide (GL-1); [7]", "value": 4.406, "unit": "ng/mL"}, {"measurement": "CSF GL-1, Week 4, Change from baseline (%) (mean)", "setting": "glucosylceramide (GL-1); [7]", "value": "−58.0", "unit": "%"}, {"measurement": "CSF GL-1, Week 4, Change from baseline (mean)", "setting": "glucosylceramide (GL-1); [7]", "value": -6.376, "unit": "ng/mL"}, {"measurement": "decrease in CSF GL-1 levels from baseline", "setting": "glucosylceramide (GL-1); highest dose (15 mg), Japanese and ROW cohorts", "value": "72.0%-74.3%"}, {"measurement": "brain penetration", "setting": "glucosylceramide (GL-1); oral administration, indicated by CSF GL-1 decrease", "value": "brain-penetrant on oral administration"}, {"measurement": "decrease of CSF GL-1 levels from baseline versus dose", "setting": "glucosylceramide (GL-1); over 4 weeks", "value": "dose-dependent manner"}, {"measurement": "CSF concentration, mean", "setting": "[1]; [2]", "value": 10.1, "unit": "ng/mL"}, {"measurement": "CSF concentration, mean", "setting": "[1]; [3]", "value": 2.11, "unit": "ng/mL"}, {"measurement": "CSF concentration, mean", "setting": "[1]; [4]", "value": 4.33, "unit": "ng/mL"}, {"measurement": "CSF concentration, mean", "setting": "[1]; ROW, High 15 mg once daily oral, sample not collected for 1 of n = 4", "value": 5.96, "unit": "ng/mL"}, {"measurement": "CSF concentration, mean", "setting": "[1]; ROW, Low 4 mg once daily oral, 1 of n = 4 not included", "value": 1.85, "unit": "ng/mL"}, {"measurement": "CSF concentration, mean", "setting": "[1]; ROW, Mid 8 mg once daily oral, 2 of n = 5 not included", "value": 3.15, "unit": "ng/mL"}, {"measurement": "CSF concentration, Fold increase vs low dose", "setting": "[1]; Japan, High 15 mg vs Low 4 mg", "value": 4.79, "unit": "fold"}, {"measurement": "CSF concentration, Fold increase vs low dose", "setting": "[1]; Japan, Mid 8 mg vs Low 4 mg", "value": 2.05, "unit": "fold"}, {"measurement": "CSF concentration, Fold increase vs low dose", "setting": "[1]; ROW, High 15 mg vs Low 4 mg", "value": 3.22, "unit": "fold"}, {"measurement": "CSF concentration, Fold increase vs low dose", "setting": "[1]; ROW, Mid 8 mg vs Low 4 mg", "value": 1.70, "unit": "fold"}, {"measurement": "increase of Compound 2 concentration in CSF with dose", "setting": "[1]; Japanese and ROW cohorts, 4, 8, 15 mg", "value": "close to dose-proportional manner"}]}]}
